{
  "source": "patent US20160068843A1",
  "about": "(priority 2012, published 2016)",
  "system": "H1N1 strain (A/California/07/09 (H1N1)pdm09)",
  "design": "species or system mice",
  "conditions": "mouse, in vivo",
  "data": [
    {"smiles": "CCOC(=O)C1=C[C@@H](OC(CC)CC)[C@H](NC(C)=O)[C@@H](N)C1", "note": "[Tamiflu]", "values": [
      {"measurement": "survival compared with siRNA combination", "result": "equivalent"}
    ]}
  ]
}
